Calls of active or inactive are those of the source.
Key:
[1] = NIH-3T3 fibroblast cytotoxicity, dose response, cytotoxicity control, cell-based, fluorescence, Alamar Blue, secondary assay (AID 2327); assay type: functional;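 further: NIH-3T3 mouse fibroblasts cultured with fluconazole at 8 µg/mL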
[2] = C. albicans growth with fluconazole, confirmation, fluorescence, retest (AID 2467); assay type: functional, cell-based
[3] = A Cell Based Secondary Assay To Explore Cytotoxicity of Compounds that Sensitize Mycobacterium Tuberculosis to Beta-Lactam Antibiotics.; assay type: functional
[4] = biological target: T1, E3 ubiquitin-protein ligase XIAP (Homo sapiens, UniProt P98170); assay: XIAP antagonists, biochemical, IAP family, fluorescence polarization (AID 1018); assay type: functional
[5] = biological target: T1, E3 ubiquitin-protein ligase XIAP; assay: Counter Screen using XIAP-Bir3 for Chemical Antagonists of Bir1/2 domains of IAP-family anti-apoptotic proteins. [Related pubchem assays (depositor defined):AID1018, AID1449, AID1514, AID1638, AID1749, AID1750, AID488957, AID488963]
[6] = biological target: T2, Mannose-6-phosphate isomerase (Homo sapiens, UniProt P34949); assay: PMI enzyme inhibitors, confirmation, biochemical, fluorescence intensity (AID 1535)
T2 sequence (P34949 whole entry): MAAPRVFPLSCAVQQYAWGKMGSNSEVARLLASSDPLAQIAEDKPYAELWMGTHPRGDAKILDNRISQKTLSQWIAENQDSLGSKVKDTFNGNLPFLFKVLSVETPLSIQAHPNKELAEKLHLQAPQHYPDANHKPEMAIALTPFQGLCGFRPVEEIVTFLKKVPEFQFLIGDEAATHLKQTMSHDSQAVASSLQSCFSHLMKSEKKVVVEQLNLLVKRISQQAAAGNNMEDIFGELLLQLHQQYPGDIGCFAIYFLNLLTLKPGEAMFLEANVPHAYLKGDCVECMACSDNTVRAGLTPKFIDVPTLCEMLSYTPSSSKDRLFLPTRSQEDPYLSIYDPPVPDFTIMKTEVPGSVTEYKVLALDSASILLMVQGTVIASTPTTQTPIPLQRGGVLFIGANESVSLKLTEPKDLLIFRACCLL

[7] = cytotoxicity in MIN6 insulinoma cells, dose response, cytotoxicity control, cell-based, mouse insulinoma (AID 2122); assay type: functional;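 further: confirmatory high-throughput counterscreen run to flag cytotoxic compounds; mouse MIN-6 beta cells carrying an insulin promoter eGFP reporter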
[8] = insulin promoter down-regulators in MIN6 cells, imaging, high-content screening, mouse beta cells (AID 1628); assay type: functional
HEK293 = assay: inhibitors of LMP1-driven NF-kB reporter, dose response, cell-based, HEK293, luciferase, cherry-pick (AID 588343); assay type: functional; conditions: Homo sapiens
[9] = biological target: Voltage-dependent T-type calcium channel subunit alpha-1H (Homo sapiens, UniProt O95180); assay type: functional;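 further: channel activity triggered by adding a high calcium stimulation buffer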
Protein Wnt-3a = Protein Wnt-3a (Mus musculus, UniProt P27467); assay: Wnt3a-driven reporter signaling inhibition, dose response, selectivity assay for Gli-SUFU antagonist project, Wnt-LIGHT cells, luminescence (AID 651570); assay type: functional; conditions: read-out: IC50_Mean;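 further: Wnt-LIGHT reporter cells stimulated with conditioned medium from Wnt3a-producing cells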
[10] = biological target: T3, Microphthalmia-associated transcription factor (Homo sapiens, UniProt O75030); assay: TRPM1 promoter luciferase signal decrease, dose response, MITF inhibitor project, cell-based, SK-MEL-5, cherry-picked, set 3 (AID 493073); assay type: functional
T3 sequence (O75030 whole entry): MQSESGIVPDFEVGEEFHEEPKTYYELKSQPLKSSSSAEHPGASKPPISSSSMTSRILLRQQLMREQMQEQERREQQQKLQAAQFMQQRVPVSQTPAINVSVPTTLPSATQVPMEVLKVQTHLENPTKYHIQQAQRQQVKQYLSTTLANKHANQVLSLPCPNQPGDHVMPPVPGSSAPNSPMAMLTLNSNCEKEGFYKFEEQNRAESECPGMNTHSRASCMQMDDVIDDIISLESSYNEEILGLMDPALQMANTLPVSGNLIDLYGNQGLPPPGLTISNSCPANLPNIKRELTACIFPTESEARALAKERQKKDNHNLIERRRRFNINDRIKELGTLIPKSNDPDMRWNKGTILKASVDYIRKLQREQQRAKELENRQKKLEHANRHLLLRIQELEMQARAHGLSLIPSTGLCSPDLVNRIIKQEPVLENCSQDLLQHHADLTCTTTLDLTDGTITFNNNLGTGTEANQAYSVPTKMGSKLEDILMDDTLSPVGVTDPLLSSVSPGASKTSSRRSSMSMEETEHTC

[11] = biological target: E3 ubiquitin-protein ligase Mdm2 (Homo sapiens, UniProt Q00987); assay: enhancers of MDM2-luciferase reporter signal, concentration-effect titration, project on inhibitors of MDM2 ubiquitin ligase, cellular assay, luminescent readout, 384-well plate format (AID 1394); assay type: functional;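 further: MDM2 E3 inhibitors raise luminescence so EC50 is for signal enhancement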
INS1 = assay: beta cell apoptosis inhibitors, cytokine rescue, dose response, luminescence, retest (AID 449756); assay type: functional, cell-based; conditions: Rattus norvegicus;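 further: cell death triggered by IL-1 beta plus TNF-alpha plus IFN-gamma mixture; protective hits raise ATP signal compared with cytokine alone wells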
[12] = biological target: DNA dC->dU-editing enzyme APOBEC-3A (Homo sapiens, UniProt P31941); assay: SAR analysis of small molecule inhibitors of APOBEC3A DNA Deaminase via a fluorescence-based single-stranded DNA deaminase assay.; assay type: functional; conditions: read-out: IC50_Mean
[13] = biological target: DNA dC->dU-editing enzyme APOBEC-3G (Homo sapiens, UniProt Q9HC16); assay: APOBEC3G deaminase inhibitors, SAR follow-up, biochemical, fluorescence, single-stranded DNA substrate (AID 602136); assay type: functional; conditions: read-out: IC50_Mean
Cytochrome P450 3A4 = Cytochrome P450 3A4 (Homo sapiens, UniProt P08684);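 further: CYP3A4 tested as one member of a cytochrome P450 panel screen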
Cytochrome P450 2D6 = Cytochrome P450 2D6 (Homo sapiens, UniProt P10635);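 further: CYP2D6 member of a cytochrome P450 panel assay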
[14] = microbe, parasite or virus in culture; assay type: functional; conditions: Mycobacterium tuberculosis
Nonstructural protein 1 = Nonstructural protein 1 (Influenza A virus, UniProt Q194T2); assay type: functional, Influenza A virus (A/California/07/2009(H1N1))
[15] = biological target: T4, Alkaline phosphatase, tissue-nonspecific isozyme (Homo sapiens, UniProt P05186); assay: human TNAP enzyme inhibitors, SAR follow-up, biochemical, luminescent, dose response (AID 1056)
T4 sequence (P05186 whole entry): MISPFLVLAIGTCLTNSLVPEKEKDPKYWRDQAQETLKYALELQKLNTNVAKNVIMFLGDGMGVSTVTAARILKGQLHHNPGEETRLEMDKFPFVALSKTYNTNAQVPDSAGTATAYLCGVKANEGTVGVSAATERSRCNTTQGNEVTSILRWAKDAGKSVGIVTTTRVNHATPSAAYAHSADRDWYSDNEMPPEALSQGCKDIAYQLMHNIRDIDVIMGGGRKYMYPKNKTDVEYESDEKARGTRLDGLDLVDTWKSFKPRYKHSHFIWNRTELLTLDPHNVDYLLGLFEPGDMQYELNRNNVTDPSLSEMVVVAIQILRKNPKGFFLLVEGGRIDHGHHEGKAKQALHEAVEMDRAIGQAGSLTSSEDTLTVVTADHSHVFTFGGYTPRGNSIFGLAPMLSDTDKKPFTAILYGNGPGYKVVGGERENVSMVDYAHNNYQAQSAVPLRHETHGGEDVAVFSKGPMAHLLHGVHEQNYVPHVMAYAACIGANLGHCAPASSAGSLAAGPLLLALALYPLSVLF

[16] = biological target: Glucose-6-phosphate 1-dehydrogenase (Homo sapiens, UniProt P11413); assay: human G6PD enzyme inhibitors, dose response, selectivity assay for P. falciparum G6PD inhibitor project, biochemical, fluorescence (AID 504792); assay type: functional
[17] = cytotoxicity toward NIH3T3 fibroblasts, dose response, counter-screen, cell-based, ATP luminescence, mouse fibroblasts (AID 2010); assay type: functional;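 further: cells exposed to compound for about 90 hours before reading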
[18] = inhibitors of intracellular T. cruzi replication, confirmation, NIH3T3 host cells, beta-gal luminescence (AID 2044); assay type: functional, cell-based;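 further: intracellular parasites grown in NIH/3T3 mouse fibroblasts as host cells; luminescent beta-galactosidase reporter signal from transgenic T. cruzi replicating inside host cells; inhibitors lower the luminescence signal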
[19] = Shn3 3'UTR reporter inhibitors, dose response, cell-based, Clone20 osteoblasts, firefly luciferase, cherry-picked (AID 624132); assay type: functional;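 further: firefly luciferase luminescence from reporter carrying the Shn3 3'UTR in osteoblasts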
[20] = control 3'UTR Renilla luciferase suppression, dose response, counter-screen for Shn3 inhibitor project, cell-based, Clone20-Shn3RL, cherry-picked (AID 624133); assay type: functional
[21] = biological target: Dual specificity tyrosine-phosphorylation-regulated kinase 1A (Rattus norvegicus, UniProt Q63470); assay type: biochemical, Homo sapiens

Chain of Cytochrome P450 2D6 (P10635 whole entry): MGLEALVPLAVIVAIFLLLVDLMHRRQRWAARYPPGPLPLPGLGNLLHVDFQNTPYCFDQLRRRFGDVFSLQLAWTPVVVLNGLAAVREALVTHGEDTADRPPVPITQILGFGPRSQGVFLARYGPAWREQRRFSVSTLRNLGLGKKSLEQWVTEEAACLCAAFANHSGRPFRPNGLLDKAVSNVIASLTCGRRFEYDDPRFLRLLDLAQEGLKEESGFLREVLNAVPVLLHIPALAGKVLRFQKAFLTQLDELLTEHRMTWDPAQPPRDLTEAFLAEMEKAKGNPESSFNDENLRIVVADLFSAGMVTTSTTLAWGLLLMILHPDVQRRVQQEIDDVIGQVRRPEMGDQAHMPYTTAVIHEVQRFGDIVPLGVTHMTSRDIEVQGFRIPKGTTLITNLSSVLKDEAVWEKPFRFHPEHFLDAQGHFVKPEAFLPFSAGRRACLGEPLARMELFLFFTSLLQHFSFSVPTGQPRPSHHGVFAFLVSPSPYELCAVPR
Chain of DNA dC->dU-editing enzyme APOBEC-3G (Q9HC16 whole entry): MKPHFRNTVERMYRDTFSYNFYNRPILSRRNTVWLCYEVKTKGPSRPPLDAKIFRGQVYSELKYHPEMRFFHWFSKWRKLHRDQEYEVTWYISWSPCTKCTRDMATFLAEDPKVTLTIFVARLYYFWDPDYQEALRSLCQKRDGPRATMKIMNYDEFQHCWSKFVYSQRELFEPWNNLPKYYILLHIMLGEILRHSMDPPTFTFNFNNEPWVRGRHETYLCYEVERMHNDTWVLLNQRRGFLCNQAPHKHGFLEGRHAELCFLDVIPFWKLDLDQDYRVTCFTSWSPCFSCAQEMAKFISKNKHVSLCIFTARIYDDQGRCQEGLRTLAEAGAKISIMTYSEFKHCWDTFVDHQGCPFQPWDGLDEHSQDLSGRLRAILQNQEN
Chain of DNA dC->dU-editing enzyme APOBEC-3A (P31941 whole entry): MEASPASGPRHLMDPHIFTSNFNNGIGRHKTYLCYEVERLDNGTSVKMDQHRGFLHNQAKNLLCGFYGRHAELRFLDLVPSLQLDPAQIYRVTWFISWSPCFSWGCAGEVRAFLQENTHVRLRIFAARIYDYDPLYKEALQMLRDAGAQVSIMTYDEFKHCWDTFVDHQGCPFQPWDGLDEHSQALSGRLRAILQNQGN
T1 sequence (P98170 whole entry): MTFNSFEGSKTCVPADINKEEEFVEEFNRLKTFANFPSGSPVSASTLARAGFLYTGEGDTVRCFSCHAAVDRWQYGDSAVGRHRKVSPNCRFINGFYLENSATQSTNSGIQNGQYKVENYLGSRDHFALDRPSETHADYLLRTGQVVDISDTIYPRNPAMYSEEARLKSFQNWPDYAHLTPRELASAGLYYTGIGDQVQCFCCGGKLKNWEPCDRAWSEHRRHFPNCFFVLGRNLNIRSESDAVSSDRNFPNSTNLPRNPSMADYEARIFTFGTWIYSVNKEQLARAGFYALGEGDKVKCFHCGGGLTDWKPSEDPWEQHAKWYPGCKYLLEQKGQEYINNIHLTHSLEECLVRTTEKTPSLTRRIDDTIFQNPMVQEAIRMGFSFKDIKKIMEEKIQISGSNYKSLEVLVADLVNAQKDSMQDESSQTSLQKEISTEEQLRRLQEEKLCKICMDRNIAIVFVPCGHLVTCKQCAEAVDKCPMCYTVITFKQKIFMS
Chain of Protein Wnt-3a (P27467 whole entry): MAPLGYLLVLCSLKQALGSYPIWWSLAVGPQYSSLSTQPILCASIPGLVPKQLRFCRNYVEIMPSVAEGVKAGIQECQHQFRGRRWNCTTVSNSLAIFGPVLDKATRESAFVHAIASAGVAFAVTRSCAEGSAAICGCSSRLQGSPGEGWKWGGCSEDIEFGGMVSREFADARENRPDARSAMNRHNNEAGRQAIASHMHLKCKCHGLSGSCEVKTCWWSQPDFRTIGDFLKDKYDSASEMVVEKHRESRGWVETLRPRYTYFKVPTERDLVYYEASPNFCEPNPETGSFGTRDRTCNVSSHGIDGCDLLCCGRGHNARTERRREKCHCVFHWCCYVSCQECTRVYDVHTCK
Chain of Voltage-dependent T-type calcium channel subunit alpha-1H (O95180 whole entry): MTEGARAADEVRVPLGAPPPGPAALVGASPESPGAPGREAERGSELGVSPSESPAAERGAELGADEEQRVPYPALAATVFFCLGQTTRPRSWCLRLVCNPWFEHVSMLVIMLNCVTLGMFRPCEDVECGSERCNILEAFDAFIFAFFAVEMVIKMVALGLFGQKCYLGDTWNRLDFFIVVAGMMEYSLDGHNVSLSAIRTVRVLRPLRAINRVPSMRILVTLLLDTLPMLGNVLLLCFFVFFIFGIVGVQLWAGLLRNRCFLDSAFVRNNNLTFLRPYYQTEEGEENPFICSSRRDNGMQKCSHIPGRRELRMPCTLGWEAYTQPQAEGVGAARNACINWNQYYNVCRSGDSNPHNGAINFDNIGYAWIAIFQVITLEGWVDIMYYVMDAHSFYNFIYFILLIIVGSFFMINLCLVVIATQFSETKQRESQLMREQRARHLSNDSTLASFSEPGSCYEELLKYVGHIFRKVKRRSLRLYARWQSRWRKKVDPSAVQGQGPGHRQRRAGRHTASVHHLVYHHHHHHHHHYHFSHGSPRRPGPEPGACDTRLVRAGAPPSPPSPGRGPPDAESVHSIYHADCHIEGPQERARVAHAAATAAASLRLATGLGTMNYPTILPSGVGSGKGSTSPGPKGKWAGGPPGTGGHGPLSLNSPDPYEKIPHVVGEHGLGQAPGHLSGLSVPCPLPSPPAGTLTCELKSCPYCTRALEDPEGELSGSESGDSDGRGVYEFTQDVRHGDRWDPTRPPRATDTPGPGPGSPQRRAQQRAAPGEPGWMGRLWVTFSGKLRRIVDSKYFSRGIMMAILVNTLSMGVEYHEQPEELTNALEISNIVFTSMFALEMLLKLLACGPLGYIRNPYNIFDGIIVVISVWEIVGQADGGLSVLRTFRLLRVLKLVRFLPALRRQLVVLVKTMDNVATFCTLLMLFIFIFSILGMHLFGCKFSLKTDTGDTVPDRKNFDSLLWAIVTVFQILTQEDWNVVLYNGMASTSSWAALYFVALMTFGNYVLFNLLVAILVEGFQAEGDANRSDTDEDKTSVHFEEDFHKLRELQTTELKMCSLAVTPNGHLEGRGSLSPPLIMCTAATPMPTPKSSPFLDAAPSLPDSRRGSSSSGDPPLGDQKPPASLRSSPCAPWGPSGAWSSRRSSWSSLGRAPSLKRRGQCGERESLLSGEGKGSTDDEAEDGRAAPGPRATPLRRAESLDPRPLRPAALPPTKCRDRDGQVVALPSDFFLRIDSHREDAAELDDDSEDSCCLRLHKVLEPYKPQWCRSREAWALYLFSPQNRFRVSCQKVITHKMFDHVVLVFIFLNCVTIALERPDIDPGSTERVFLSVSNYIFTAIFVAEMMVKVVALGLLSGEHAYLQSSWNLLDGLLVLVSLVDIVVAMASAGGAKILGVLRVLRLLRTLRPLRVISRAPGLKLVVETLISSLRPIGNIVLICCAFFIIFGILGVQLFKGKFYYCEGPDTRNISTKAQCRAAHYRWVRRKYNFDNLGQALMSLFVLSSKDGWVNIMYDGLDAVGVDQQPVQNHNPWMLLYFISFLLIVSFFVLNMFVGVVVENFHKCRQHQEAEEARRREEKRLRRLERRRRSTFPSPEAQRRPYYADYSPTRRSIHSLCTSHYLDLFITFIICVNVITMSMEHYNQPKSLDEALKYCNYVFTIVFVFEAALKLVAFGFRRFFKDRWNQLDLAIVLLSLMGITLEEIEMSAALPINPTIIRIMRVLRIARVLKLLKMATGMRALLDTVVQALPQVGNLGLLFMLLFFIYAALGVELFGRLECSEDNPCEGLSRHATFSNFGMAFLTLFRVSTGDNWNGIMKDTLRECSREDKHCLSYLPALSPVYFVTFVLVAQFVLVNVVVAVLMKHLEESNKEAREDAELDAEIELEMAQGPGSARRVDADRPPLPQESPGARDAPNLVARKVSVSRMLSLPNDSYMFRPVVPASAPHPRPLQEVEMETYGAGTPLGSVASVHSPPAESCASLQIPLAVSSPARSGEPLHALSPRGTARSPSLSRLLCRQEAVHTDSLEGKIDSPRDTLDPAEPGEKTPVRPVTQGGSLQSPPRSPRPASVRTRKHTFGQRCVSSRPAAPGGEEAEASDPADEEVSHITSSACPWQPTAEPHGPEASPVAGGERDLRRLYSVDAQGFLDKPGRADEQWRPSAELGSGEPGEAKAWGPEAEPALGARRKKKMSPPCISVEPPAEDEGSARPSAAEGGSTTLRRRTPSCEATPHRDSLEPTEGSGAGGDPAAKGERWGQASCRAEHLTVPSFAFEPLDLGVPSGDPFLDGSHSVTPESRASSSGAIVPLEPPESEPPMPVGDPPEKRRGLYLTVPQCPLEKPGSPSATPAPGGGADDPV
Chain of Glucose-6-phosphate 1-dehydrogenase (P11413 whole entry): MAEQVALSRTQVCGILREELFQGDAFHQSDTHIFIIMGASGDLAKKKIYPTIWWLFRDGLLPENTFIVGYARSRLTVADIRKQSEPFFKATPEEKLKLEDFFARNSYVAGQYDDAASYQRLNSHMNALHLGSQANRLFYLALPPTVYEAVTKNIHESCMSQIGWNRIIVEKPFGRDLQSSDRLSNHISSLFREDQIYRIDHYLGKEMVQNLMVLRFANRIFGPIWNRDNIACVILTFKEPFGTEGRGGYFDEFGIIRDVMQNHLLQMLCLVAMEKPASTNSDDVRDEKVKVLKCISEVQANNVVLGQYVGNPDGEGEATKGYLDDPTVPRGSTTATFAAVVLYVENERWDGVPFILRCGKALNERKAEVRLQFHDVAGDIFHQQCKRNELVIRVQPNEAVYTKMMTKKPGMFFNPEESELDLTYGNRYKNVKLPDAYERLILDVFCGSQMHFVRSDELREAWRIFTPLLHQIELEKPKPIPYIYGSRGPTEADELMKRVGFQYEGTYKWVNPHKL
Chain of Nonstructural protein 1 (Q194T2 whole entry): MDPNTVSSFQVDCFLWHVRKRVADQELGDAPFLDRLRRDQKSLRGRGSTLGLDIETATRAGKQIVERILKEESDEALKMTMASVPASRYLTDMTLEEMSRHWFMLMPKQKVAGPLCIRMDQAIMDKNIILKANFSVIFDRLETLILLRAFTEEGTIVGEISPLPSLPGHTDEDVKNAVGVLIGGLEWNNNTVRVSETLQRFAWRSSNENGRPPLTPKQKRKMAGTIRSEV

CCCCCn1c(=O)c(C(=O)NCc2ccncc2)c(O)c2ccccc21
EC50 [1]: > 150 µM (inactive)
EC50 [2]: > 38 µM (not active)
CC50 [3]: 14.7 µM (active)

COc1cc(/C=N/Nc2cc(C)nc(NS(=O)(=O)c3ccc(C)cc3)n2)ccc1O
IC50 [4]: > 100 µM (not active)
IC50 [5]: > 100 µM (inactive)

Clc1ncccc1/N=c1\ssnc1Cl
IC50 [6]: 9.88 µM (active)

Cc1cc(O)nc(N=N/C(=N/Nc2ccccc2C)c2ccccc2)n1
IC50 [7]: 1.36 µM (active)
IC50 [8]: 1.46 µM (active)
AC50 (HEK293): 4.66 µM (active)

Cc1ccc(Cl)cc1N1CCN(Cc2nnnn2Cc2ccco2)CC1
EC50 [9]: 0.633 µM (active)

Cc1ccc(-c2nc(NC(=O)CSc3ccc4ccccc4n3)ns2)cc1
IC50 [4]: > 100 µM (not active)
IC50 [5]: > 100 µM (inactive)

O=C(c1ccc(C(F)(F)F)cc1)C1CCCN(Cc2ccncc2)C1 (stereo unspecified)
IC50 (Protein Wnt-3a): 5.15 µM (active)

Cc1n[nH]c(NC(=O)/C=C/c2ccccc2)n1
AC50 [10]: 17.8 µM (active)
EC50 [11]: 1.09 µM (active)

O=[N+]([O-])c1ccc(/C=N/Nc2ccnc3cc(Cl)ccc23)o1
AC50 [10]: 15.3 µM (active)
AC50 (INS1): 9.06 µM (active)

CCCCN1CCc2cc(/C=C3\C(=O)NC(=S)N(C4CC4)C3=O)ccc21
IC50 [12]: 57.1 µM (inactive)
IC50 [13]: 68.2 µM (inactive)

CC1CCN(S(=O)(=O)c2ccc(NN=C(C#N)C#N)cc2)CC1
EC50 [9]: 1.52 µM (active)

CCCCCCCn1c(=N)n(CC(O)c2ccco2)c2ccccc21 (stereo unspecified)
IC50 [7]: 3.55 µM (active)
IC50 [8]: 1.79 µM (active)

Cc1ccc(C(=O)O/N=C\c2ccc(N3CCCCC3)c([N+](=O)[O-])c2)cc1
AC50 (Cytochrome P450 3A4): 22.4 µM (inconclusive)
AC50 (Cytochrome P450 2D6): inconclusive
CC50 [14]: > 40 µM (active)

Cc1cc(C)nc(N/N=C/c2c(CO)cnc(C)c2O)n1
IC50 (Nonstructural protein 1): 20.2 µM (active)

Cc1cc(C)nc(NCc2ccc(O)c(O)c2)n1
IC50 [15]: 27 µM (active)

NCCc1cc(O)c(O)cc1O
IC50 [16]: > 80 µM (inactive)

Cc1ccc(CN(C)C(=O)CSc2nnc(-c3ccc(F)cc3)n2C)o1
IC50 [12]: > 99 µM (inactive)
IC50 [13]: > 99 µM (inactive)

O=C(Nc1nc2ccc([N+](=O)[O-])cc2s1)c1ccc(S(=O)(=O)N2CCCc3ccccc32)cc1
EC50 [17]: > 30 µM (not active)
IC50 [7]: 1.46 µM (active)
IC50 [8]: 2.16 µM (active)
EC50 [18]: 2.01 µM (active)
AC50 (INS1): 3.34 µM (active)

CCC12CN3CCN(CC(C3)C1O)C2 (stereo unspecified)
IC50 [4]: > 100 µM (not active)
IC50 [5]: > 100 µM (inactive)

O=C(Nc1ccc2c(c1)OCO2)C1CCN(Cc2cnn(-c3ccccc3)c2-n2cccc2)CC1
EC50 [9]: 5.88 µM (active)

C[C@H](NC(=O)c1cc2c3ccccc3nc-2c[nH]1)C(=O)O
IC50 [16]: > 80 µM (inactive)

O=C(N[C@@H]1C/C=C\C[C@@H](CC(=O)N(CCO)Cc2ccccc2)C(=O)NC[C@H](c2ccccc2)OC1=O)OCC1c2ccccc2-c2ccccc21
AC50 [19]: 7.04 µM (active)
IC50 (Protein Wnt-3a): 8.93 µM (active)
AC50 [20]: 4.32 µM (active)

COc1ccc(-c2nnc(SCC(=O)N(C)Cc3cccs3)[nH]2)cc1
IC50 [12]: > 99 µM (inactive)
IC50 [13]: > 99 µM (inactive)

CC(C)=CCC/C(C)=C/CNC(=O)C[C@H]1C[C@H](C(=O)N2CCOCC2)[C@@]2(C)c3[nH]c4cc(CCC(=O)N(C)C)ccc4c3CCN2C1=O
AC50 [19]: 1.11 µM (active)
IC50 (Protein Wnt-3a): 23.6 µM (inactive)
AC50 [20]: 1.33 µM (active)

COc1ccc(C2=NS(=O)(=O)N(C)C(C(=O)Nc3ccc4c(c3)OCO4)=C2)cc1OC
IC50 (Nonstructural protein 1): > 100 µM (active)

O=C1C(/C=N/Cc2ccncc2)=C(O)c2ccccc21
AC50 [21]: 7.11 µM (active)

N=c1oc2cc(O)ccc2cc1C(=O)Nc1ccc(F)cc1
AC50 [21]: 14.5 µM (active)

CO[C@@H]1COC(=O)CCC[C@@H](C)[C@H](OC)COC(=O)CCC[C@H]1C
AC50 (Cytochrome P450 2D6): inconclusive

O=C1CN(/N=C\c2ccc(-c3ccc([N+](=O)[O-])cc3)o2)C([O-])=N1.[Na+]
AC50 (Cytochrome P450 2D6): inactive

CCn1c(=O)cc(OCC(=O)NCCC(C)C)c2ccccc21
IC50 [4]: > 100 µM (not active)
IC50 [5]: > 100 µM (inactive)

COc1ccc2c(c1)CCc1c[nH]nc1-2
AC50 [21]: > 120 µM (inactive)

Cc1oc(-c2ccccc2)nc1Cn1cccc1C1=NC(c2ccccc2)CO1 (stereo unspecified)
EC50 [9]: 7.51 µM (active)
